For this experiment, the system named is permanent cerebral ischemic rats. The experiment in a line: Behavioral disorder and cerebral infarct area in permanent cerebral ischemic rats (FeCl3 on middle cerebral artery). The following applies: for reduction of cerebral infarct area / neurological deficit scores (effect in words) / ED40 (cerebral infarct area): vs model control group; for decrease of neurological deficit scores / ED30 (neurological deficit scores): i.v., 24 hours after administration; for neurological deficit scores (effect in words): intravenous injection. The format is in vivo, Wistar rats. The method, then:
Experimental Animal: The same as Example 1. Experimental Equipments: COOLPIX955 digital camera, 722 grating spectroscope, XHF-1 high-speed disperser, YKH-II liquid high-speed mixer, WZ-50C2 micro infusion pump. Experimental Methods: Wistar rats were anesthetized by intraperitoneally injecting 12% chloral hydrate in 350 mg/kg, and fixed in lateral decubitus position. The skin at the midpoint on the line from exterior auditory canal to canthus was cut. The muscle was separated layer by layer to expose zygomatic arch and the squamous part of temporal bone. The zygomatic arch was scissored and then placed under an operating microscope. A window of 2 mm diameter was drilled by using a dentistry drill at a position of 2 mm under the anterior joint between zygomatic arch and the squamous part of temporal bone, so as to expose the middle cerebral artery. A little piece of filter paper was applied onto the middle artery, and 10 μl of 50% FeCl3 aqueous solution was dripped onto the filter paper. The filter paper was removed after 30 min, and washed with physiological brine. Two to three drops of penicillin (1.6×10^5 U/mL) were added so as to prevent infection of the cut. Then the cut was sutured layer by layer.

As to `CCCCC1OC(=O)c2ccccc21` (racemic) [dl-NBP, butylphthalide], the “ED30 (neurological deficit scores)” value worked out at 7.2 mg/kg, the “neurological deficit scores (effect in words)” value was “improvement” and the “ED40 (cerebral infarct area)” value is recorded as 7.1 mg/kg. In addition, the “cerebral infarct area (effect in words)” value (2.5 mg/kg, tendency of reducing) was “not significant”. In addition, the “reduction of cerebral infarct area” value (first of three doses) was found to be 29.2%. For the same molecule, where the note is “high dose”, the “decrease of neurological deficit scores” value stood at 37.5%. The “decrease of neurological deficit scores” value (low dose) is reported as 15.6%. In addition, the “decrease of neurological deficit scores” value (moderate dose) was found to be 21.9%. For the same molecule, under “second of three doses”, the “reduction of cerebral infarct area” value was found to be 35.2%. Besides, the “reduction of cerebral infarct area” value (third of three doses) is recorded as 44.4%.

As to `CCCC[C@@H]1OC(=O)c2ccccc21` [l-NBP, L-butylphthalide], the “ED30 (neurological deficit scores)” value amounted to 6.2 mg/kg, the “neurological deficit scores (effect in words)” value is reported as “improvement” and the “ED40 (cerebral infarct area)” value stood at 3.3 mg/kg. The “cerebral infarct area (effect in words)” value (5 and 10 mg/kg, effect increased with dose) is listed as “significantly reduce”. In addition, the “effect on cerebral infarct area relative to d-NBP” value (as calculated by converting into ED50) is recorded as “about 3.1 times”. In addition, the “cerebral infarct area (effect in words)” value (dose not given) is on record as “significantly reduce”. In addition, the “reduction of cerebral infarct area” value (first of three doses) is 38.4%. The “decrease of neurological deficit scores” value (high dose) turned out to be 35.9%. The “decrease of neurological deficit scores” value (low dose) worked out at 17.2%. The “decrease of neurological deficit scores” value (moderate dose) turned out to be 29.7%. The “reduction of cerebral infarct area” value (second of three doses) is reported as 41.9%. Under “third of three doses”, the “reduction of cerebral infarct area” value came out at 50.7%.

These data come from patent publication US9795585B2, “Methods of using L-butylphthalide for the prevention and treatment of cerebral ischemia disease” (priority 2004, dated 2017).
